Literature values as cited in patent US20240315301A1, “Composition for Improving Vision” (ALGAE HEALTH SCIENCES CO., LTD., priority 2021, published 2024).

Settings: fold more than vitamin E

For CC1=C(/C=C/C(C)=C/C=C/C(C)=C/C=C/C=C(C)/C=C/C=C(C)/C=C/C2=C(C)C(=O)C(O)CC2(C)C)C(C)(C)CC(O)C1=O (stereo not drawn) [Astaxanthin, 3, 3′-dihydroxy-β, β-carotene-4, 4′-dione], the “antioxidant activity relative to vitamin E (VE)” value is listed as 1000 times.
